Tests used:
S-2L PurZ [1] = target: T1, S-2L PurZ (Cyanophage S-2L, UniProt A0A7U3TBV6); assay: HPLC product analysis; assay type: biochemical; details: dGMP, 10 mM aspartate, 5 mM MgSO4, pH 7.5, 37 °C
T1 construct: E. coli codon-optimized synthetic gene, N-terminal 14-His tag removed by TEV, expressed in E. coli; dimer

S-2L MazZ [2] = target: T2, S-2L MazZ (Cyanophage S-2L, UniProt A0A7U3TBV3); assay: HPLC product analysis; assay type: biochemical; details: 100 uM nucleotide, 5 mM MgCl2, pH 7.5, 37 °C
T2 construct: gene S2L_23; E. coli codon-optimized synthetic gene, N-terminal 14-His tag removed by TEV, expressed in E. coli; homotetramer

S-2L PurZ [3] = target: T1, S-2L PurZ; assay: X-ray crystal structure, […] Å; assay type: binding; details: co-crystallised with dGMP, soaked with dATP; pH 7
S-2L MazZ [4] = target: T2, S-2L MazZ; assay: X-ray crystal structure, […] Å; assay type: binding; details: crystallised with dGTP; dephosphorylation product dGDP; three Mn2+ ions; pH 8.5
[5] = target: S-2L MazZ (MazG-like (d)GTP-specific nucleotide diphosphohydrolase of cyanophage S-2L) (cyanophage S-2L); assay: crystal structure; S-2L MazZ with the dGTP dephosphorylation product (dGDP) and Mn2+, 1.43 Å; crystals grown at 18 °C in 200 mM Li2SO4, 1.26 M (NH4)2SO4, 100 mM Tris pH 8.5; tetramer in the asymmetric unit
[6] = target: the molecule itself; assay: crystal structure; S-2L PurZ with dGMP and dATP, 1.7 Å; crystals grown at 4 °C in 15% Tacsimate, 2% PEG 3350, 100 mM HEPES pH 7; dimer reconstructed through crystallographic symmetry

`Nc1ncnc2c1ncn2[C@@H]1O[C@H](COP(=O)(O)OP(=O)(O)OP(=O)(O)O)[C@@H](O)[C@H]1O` [ATP] was tested, and the HPLC product analysis (S-2L PurZ [1]; 2 mM nucleotides) was “it can act as a dATPase, but stays functional after dATP pool depletion by using ATP”.

`Nc1nc2c(ncn2[C@@H]2O[C@H](COP(=O)(O)OP(=O)(O)OP(=O)(O)O)[C@@H](O)[C@H]2O)c(=O)[nH]1` [GTP] was tested, and the HPLC product analysis (S-2L MazZ [2]) was “Its preferential substrates, dGTP and GTP, are rapidly dephosphorylated to dGMP and GMP”.

For `N[C@@H](CC(=O)O)C(=O)O` [aspartic acid], the HPLC product analysis (S-2L PurZ [1]; dATP/ATP) was “reaction catalyzed by PurZ in presence of dGMP, Asp and dATP/ATP”.

In the case of `Nc1ncnc2c1ncn2[C@H]1C[C@H](O)[C@@H](COP(=O)(O)OP(=O)(O)OP(=O)(O)O)O1` [dATP], the “X-ray crystal structure, 1.7 Å” value (S-2L PurZ [3]) is reported as “We crystallized S-2L PurZ with two of its substrates, dGMP and dATP”.

With `Nc1nc2c(ncn2[C@H]2C[C@H](O)[C@@H](COP(=O)(O)OP(=O)(O)O)O2)c(=O)[nH]1` [dGDP] the “X-ray crystal structure, 1.43 Å” value (S-2L MazZ [4]) was “The dGDP intermediate observed in crystallo is almost completely buried inside the enzyme”.

In the case of `Nc1nc2c(ncn2[C@H]2C[C@H](O)[C@@H](COP(=O)(O)O)O2)c(=O)[nH]1` [dGMP], the “X-ray crystal structure, 1.7 Å” value (S-2L PurZ [3]) is reported as “We crystallized S-2L PurZ with two of its substrates, dGMP and dATP”.

`Nc1nc2c(ncn2[C@H]2C[C@H](O)[C@@H](COP(=O)(O)OP(=O)(O)OP(=O)(O)O)O2)c(=O)[nH]1` [dGTP] was tested, and the HPLC product analysis (S-2L MazZ [2]) was “Its preferential substrates, dGTP and GTP, are rapidly dephosphorylated to dGMP and GMP”.

“S-2L MazZ (MazG-like (d)GTP-specific nucleotide diphosphohydrolase of cyanophage S-2L) (enzyme)” was tested, and the stoichiometry N [5] was 4.

B1: S-2L PurZ (homologue of adenylosuccinate synthetase of cyanophage S-2L) (enzyme)
chain: MLSIPPYYRVKNCNLIVDCQYGSTGKGLLAGYLGALEAPQVLCMAPSPNAGHTLVEEDGTARVHKMLPLGITSPSLERIYLGPGSVIDMDRLLEEYLALPRQVELWVHQNAAVVLQEHRDEEAAGGLAPGSTRSGAGSAFIAKIRRRPGTLLFGEAVRDHPLHGVVRVVDTRTAQDMLFRTRSIQAEGCQGYSLSVHHGAYPYCTARDVTTAQLIADCGLPYDVARIARVVGSMRTYPIRVANRPEAGEWSGPCYPDSVECQFADLGLEQEYTTVTKLPRRIFTFSAIQAHEAIAQNGVDEVFLNFAQYPPSLGALEDILDAIEARAEVTYVGFGPKVTDVYHTPTRAELEGLYARYRR
notes: PurZ of cyanophage S-2L, product of the gene purZ; synthetic gene optimised for E. coli; Crystallised with dGMP and soaked with dATP; The dimer is made by crystallographic symmetry; source: E. coli BL21-CodonPlus (DE3)-RIPL, purified (Ni-NTA, TEV cleavage, Superdex 200); not shown: His14, N-terminal, cleaved
For B1, the “stoichiometry N” value [6] was 2.
